From US8461328B2, “Tricyclic heterocyclic compounds, compositions and methods of use thereof” (Genentech, Inc., priority 2010, dated 2013)

Key:
Format in all cases: biochemical
[1] = molecular target: T1, JAK1 (Homo sapiens, UniProt P23458); assay: JAK1 inhibition (Table 4); details: read-out: JAK1 Ki
T1 construct: made in house; host or cells: SF9 insect cells (baculovirus)

[2] = molecular target: T2, JAK3 (Homo sapiens, UniProt P52333); assay: JAK3 inhibition (Table 4); details: read-out: JAK3 Ki
T2 construct: made in house; host or cells: SF9 insect cells (baculovirus)

[3] = molecular target: T3, TYK2 (Homo sapiens, UniProt P29597); assay: TYK2 inhibition (Table 4)
T3 construct: made in house; host or cells: SF9 insect cells (baculovirus)
T3 sequence (P29597 873-1187): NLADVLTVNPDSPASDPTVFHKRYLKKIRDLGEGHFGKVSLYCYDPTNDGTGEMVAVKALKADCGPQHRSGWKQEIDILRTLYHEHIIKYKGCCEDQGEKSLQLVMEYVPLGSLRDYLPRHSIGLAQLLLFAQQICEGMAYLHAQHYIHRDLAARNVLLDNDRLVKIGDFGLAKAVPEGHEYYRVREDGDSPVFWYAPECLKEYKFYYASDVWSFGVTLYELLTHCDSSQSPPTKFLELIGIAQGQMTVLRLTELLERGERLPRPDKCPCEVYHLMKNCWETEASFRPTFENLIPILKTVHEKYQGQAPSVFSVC

[4] = molecular target: T4, JAK2 (Homo sapiens, UniProt O60674); assay: JAK2 inhibition (Table 4); details: read-out: JAK2 Ki
T4 construct: made in house; host or cells: SF9 insect cells (baculovirus)
T4 sequence (O60674 812-1132): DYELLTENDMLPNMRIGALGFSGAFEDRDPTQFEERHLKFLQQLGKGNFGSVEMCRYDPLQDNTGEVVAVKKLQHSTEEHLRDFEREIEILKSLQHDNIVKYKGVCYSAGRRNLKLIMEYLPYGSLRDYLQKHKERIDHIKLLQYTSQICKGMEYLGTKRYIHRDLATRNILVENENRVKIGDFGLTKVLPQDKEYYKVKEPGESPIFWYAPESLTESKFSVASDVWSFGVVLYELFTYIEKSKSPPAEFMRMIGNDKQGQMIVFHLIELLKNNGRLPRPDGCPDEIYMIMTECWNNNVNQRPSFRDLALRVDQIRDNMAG

T1 sequence (P23458 852-1154): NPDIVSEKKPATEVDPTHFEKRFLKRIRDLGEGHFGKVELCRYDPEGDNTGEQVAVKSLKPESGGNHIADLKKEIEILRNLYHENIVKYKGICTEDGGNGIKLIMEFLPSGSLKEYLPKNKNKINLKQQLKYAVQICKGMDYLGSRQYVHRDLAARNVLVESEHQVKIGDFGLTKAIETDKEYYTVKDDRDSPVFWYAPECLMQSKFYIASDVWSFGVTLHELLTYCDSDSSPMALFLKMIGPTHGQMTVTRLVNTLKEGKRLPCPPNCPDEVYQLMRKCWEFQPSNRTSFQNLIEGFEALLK
T2 sequence (P52333 783-1124): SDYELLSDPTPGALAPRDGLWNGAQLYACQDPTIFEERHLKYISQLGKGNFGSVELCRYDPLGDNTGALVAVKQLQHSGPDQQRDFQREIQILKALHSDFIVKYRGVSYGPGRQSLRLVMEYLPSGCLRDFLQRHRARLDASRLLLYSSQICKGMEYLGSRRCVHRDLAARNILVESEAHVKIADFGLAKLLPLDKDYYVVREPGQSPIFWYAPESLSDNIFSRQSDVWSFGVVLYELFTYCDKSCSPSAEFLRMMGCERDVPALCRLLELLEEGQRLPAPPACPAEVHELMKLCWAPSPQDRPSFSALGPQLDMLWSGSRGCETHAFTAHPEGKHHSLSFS

SMILES | Ki [1] | Ki [2] | Ki [3] | Ki [4]
N#CCCN1CCC(n2c(C#N)nc3cnc4[nH]ccc4c32)CC1 [Example 293, 1-[1-(2-Cyano-ethyl)-piperidin-4-yl]-1,6-dihydro-1,3,5,6-tetraaza-as-indacene-2-carbonitrile] | 1.21 nM | 14 nM | 11.9 nM | 1.31 nM
CC(C)OC(=O)N[C@H]1CC[C@H](n2cnc3cnc4[nH]ccc4c32)CC1 [Example 310, [(R)-4-(6H-1,3,5,6-Tetraaza-as-indacen-1-yl)-cyclohexyl]-carbamic acid isopropyl ester] | 9.01 nM | 213 nM | 197 nM | 26.3 nM
COCCN1CCC(n2c(C(C)O)nc3cnc4[nH]ccc4c32)CC1 (racemic) [Example 539, 1-{1-[1-(2-Methoxy-ethyl)-piperidin-4-yl]-1,6-dihydro-1,3,5,6-tetraaza-as-indacen-2-yl}-ethanol] | 12.7 nM | 97.4 nM | 352 nM | 194 nM
O=C(Cc1nc2cnc3[nH]ccc3c2n1C1CCN(Cc2cccnc2)CC1)N1CCC(F)(F)CC1 [Example 286, 1-(4,4-Difluoro-piperidin-yl)-2-[1-(1-pyridin-3-ylmethyl-piperidin-4-yl)-1,6-dihydro-1,3,5,6-tetraaza-as-indacen-2-yl]-ethanone] | 3.56 nM | 6.46 nM | 442 nM | 47.8 nM
N#CCCN1CCC(n2c(CNS(=O)(=O)C3CC3)nc3cnc4[nH]ccc4c32)CC1 [Example 497, Cyclopropanesulfonic acid {1-[1-(2-cyano-ethyl)-piperidin-4-yl]-1,6-dihydro-1,3,5,6-tetraaza-as-indacen-2-ylmethyl}-amide] | 13 nM | 76.3 nM | 169 nM | 41.5 nM
CC(=O)N1CCC(c2nc3cnc4[nH]ccc4c3n2C2CCN(C(C)CC#N)CC2)C1 (racemic) [Example 397, 3-{4-[2-(1-Acetyl-pyrrolidin-3-yl)-6H-1,3,5,6-tetraaza-as-indacen-1-yl]-piperidin-1-yl}-butyronitrile] | 29.9 nM | 114 nM | 269 nM | 62.4 nM

Further lines, results first:

Ki [1] | Ki [2] | Ki [3] | Ki [4] | SMILES
92.4 nM | 3490 nM | 809 nM | 182 nM | CC(C)N1CCC(n2cnc3cnc4[nH]ccc4c32)CC1 [Example 549, 1-(1-Isopropyl-piperidin-4-yl)-1,6-dihydro-1,3,5,6-tetraaza-as-indacene]
6.94 nM | 110 nM | 39.2 nM | 60.9 nM | CC(C)(C)OC(=O)N1CCC(N[C@H]2CC[C@H](n3cnc4cnc5[nH]ccc5c43)CC2)CC1 [Example 558, trans 4-[4-(6H-1,3,5,6-Tetraaza-as-indacen-1-yl)-cyclohexylamino]-piperidine-1-carboxylic acid tert-butyl ester]
2.97 nM | 13.6 nM | 172 nM | 25.2 nM | CCN1CCC(n2c(CCNS(C)(=O)=O)nc3cnc4[nH]ccc4c32)C(F)(F)C1 (racemic) [Example 804, N-{2-[1-(1-Ethyl-3,3-difluoro-piperidin-4-yl)-1,6-dihydro-1,3,5,6-tetraaza-as-indacen-2-yl]-ethyl}-methanesulfonamide]
1.84 nM | 11.2 nM | 54.5 nM | 38.5 nM | CC(O)c1nc2cnc3[nH]ccc3c2n1C1CCN(Cc2cnco2)CC1F (centres unmarked) [Example 933, 1-[1-(3-Fluoro-1-oxazol-5-ylmethyl-piperidin-4-yl)-1,6-dihydro-1,3,5,6-tetraaza-as-indacen-2-yl]-ethanol]
62.2 nM | 229 nM | 270 nM | 199 nM | CC(C)(C)[S+]([O-])NCc1nc2cnc3[nH]ccc3c2n1C1CCCCC1 (centres unmarked) [Example 690, 2-Methyl-propane-2-sulfinic acid (1-cyclohyl-1,6-dihydro-1,2,3,5,6-tetraaza-as-indacen-2-ylmethyl)-amide]
